Where a name gives a salt, the structure may show the parent alone.
Legend:
oral cavity and tongue = test: Taste and irritation test by subjects (self-made sample vs reference sample); assay type: in vivo, human
Protocol: In the examples, the taste masking effects of test samples were evaluated by the subject's perception of the bitterness and irritation of the oral cavity and tongue. The Taste and Irritation Classification Tested by the Subjects: [table]

tongue = test: Comparative Example 2: comparison of taste of solid dispersion, hemihydrobromide powder and marketed drug product (20 subjects); assay type: in vivo, human; conditions: equivalent to 10 mg vortioxetine
Protocol: The solid dispersion equivalent to 10 mg vortioxetine prepared in Example 9b, vortioxetine hemihydrobromide powder equivalent to 10 mg vortioxetine, and the powder compressed by vortioxetine hydrobromide marketed drug product equivalent to 10 mg of vortioxetine hydrobromide passed through 100 mesh sieve, then they were put directly in front of the upper part of the tongue for one minute. There were 20 subjects in each powder group. After trying one powder taste, rinsed your mouth, and try another powder after there was no irritation. After trying the taste, record the bitterness level and tongue irritation, spit it out a few seconds later, rinse your mouth, record the time for the irritation to subside, eat 1-1.5 hours later, and record the irritation again.

[1] = Solubility in sodium acetate medium pH 6.8 simulating the oral environment (USP method); assay type: physicochemical; conditions: sodium acetate medium, pH 6.8, aqueous buffer, sodium acetate medium pH 6.8, USP method; read-out: Solubility
[2] = average of 5 subjects, powder equivalent to 20 mg of vortioxetine

Br.Cc1ccc(Sc2ccccc2N2CCNCC2)c(C)c1 [Reference sample (1b), vortioxetine hydrobromide form α]
Instantaneous irritation (oral cavity and tongue; Subject 1, 0-1 minute, powder equivalent to 20 mg of vortioxetine tasted): +++ (+ + + Strong irritation, intolerable) | Delayed irritation (oral cavity and tongue; Subject 1, powder equivalent to 20 mg of vortioxetine tasted): >30 min | Instantaneous irritation (oral cavity and tongue; Subject 2, 0-1 minute, powder equivalent to 20 mg of vortioxetine tasted): +++ (+ + + Strong irritation, intolerable) | Delayed irritation (oral cavity and tongue; Subject 2, powder equivalent to 20 mg of vortioxetine tasted): >30 min | Instantaneous irritation (oral cavity and tongue; Subject 3, 0-1 minute, powder equivalent to 20 mg of vortioxetine tasted): +++ (+ + + Strong irritation, intolerable) | Delayed irritation (oral cavity and tongue; Subject 3, powder equivalent to 20 mg of vortioxetine tasted): >30 min | Instantaneous irritation (oral cavity and tongue; Subject 4, 0-1 minute, powder equivalent to 20 mg of vortioxetine tasted): +++ (+ + + Strong irritation, intolerable) | Delayed irritation (oral cavity and tongue; Subject 4, powder equivalent to 20 mg of vortioxetine tasted): >30 min | Instantaneous irritation (oral cavity and tongue; Subject 5, 0-1 minute, powder equivalent to 20 mg of vortioxetine tasted): +++ (+ + + Strong irritation, intolerable) | Delayed irritation (oral cavity and tongue; Subject 5, powder equivalent to 20 mg of vortioxetine tasted): >30 min | Delayed irritation, time to disappear (oral cavity and tongue; [2]): more than 30 minutes | Instantaneous irritation (oral cavity and tongue; [2]): +++ (+ + + Strong irritation, intolerable)

Br.Cc1ccc(Sc2ccccc2N2CCNCC2)c(C)c1.Cc1ccc(Sc2ccccc2N2CCNCC2)c(C)c1 [Vortioxetine hemihydrobromide powder]
Number of subjects experiencing different irritation: Basically no irritation (tongue): 6 | Number of subjects experiencing different irritation: Slightly irritating, tolerable (tongue; no irritation after gargling): 12^(2) | Number of subjects experiencing different irritation: unbearable (tongue; subside time more than 2 hours, not subsided after eating): 2^(1)

Br.Cc1ccc(Sc2ccccc2N2CCNCC2)c(C)c1.Cc1ccc(Sc2ccccc2N2CCNCC2)c(C)c1 [vortioxetine hemihydrobromide]
Delayed irritation, time to disappear (oral cavity and tongue; [2]): more than 30 minutes | Instantaneous irritation (oral cavity and tongue; [2]): ++ (+ + Irritating, tolerable)

Cc1ccc(Sc2ccccc2N2CCNCC2)c(C)c1 [vortioxetine hydrobromide, 1-[2-(2,4-dimethyl-phenylsulfanyl)-phenyl]piperazine hydrobromide]
solubility [1]: 150 µg/mL | Instantaneous irritation (oral cavity and tongue; Subject 1, 0-1 minute, powder equivalent to 20 mg of vortioxetine tasted, listed as Reference sample (2b), hydrobromide): +++ (+ + + Strong irritation, intolerable) | Delayed irritation (oral cavity and tongue; Subject 1, powder equivalent to 20 mg of vortioxetine tasted, listed as Reference sample (2b), hydrobromide): >30 min | Delayed irritation (oral cavity and tongue; Subject 1, powder equivalent to 20 mg of vortioxetine tasted, listed as Reference sample (4b), hydrobromide): >30 min | Delayed irritation (oral cavity and tongue; Subject 1, powder equivalent to 20 mg of vortioxetine tasted, listed as Reference sample (4c), hydrobromide): >30 min | Delayed irritation (oral cavity and tongue; Subject 1, powder equivalent to 20 mg of vortioxetine tasted, listed as Reference sample (7b), hydrobromide): >30 min | Instantaneous irritation (oral cavity and tongue; Subject 2, 0-1 minute, powder equivalent to 20 mg of vortioxetine tasted, listed as Reference sample (2b), hydrobromide): ++ (+ + Irritating, tolerable) | Delayed irritation (oral cavity and tongue; Subject 2, powder equivalent to 20 mg of vortioxetine tasted, listed as Reference sample (2b), hydrobromide): >30 min | Delayed irritation (oral cavity and tongue; Subject 2, powder equivalent to 20 mg of vortioxetine tasted, listed as Reference sample (4b), hydrobromide): >30 min | Delayed irritation (oral cavity and tongue; Subject 2, powder equivalent to 20 mg of vortioxetine tasted, listed as Reference sample (4c), hydrobromide): >30 min | Delayed irritation (oral cavity and tongue; Subject 2, powder equivalent to 20 mg of vortioxetine tasted, listed as Reference sample (7b), hydrobromide): >30 min | Instantaneous irritation (oral cavity and tongue; Subject 3, 0-1 minute, powder equivalent to 20 mg of vortioxetine tasted, listed as Reference sample (2b), hydrobromide): +++ (+ + + Strong irritation, intolerable) | Delayed irritation (oral cavity and tongue; Subject 3, powder equivalent to 20 mg of vortioxetine tasted, listed as Reference sample (2b), hydrobromide): >30 min | Delayed irritation (oral cavity and tongue; Subject 3, powder equivalent to 20 mg of vortioxetine tasted, listed as Reference sample (4b), hydrobromide): >30 min | Delayed irritation (oral cavity and tongue; Subject 3, powder equivalent to 20 mg of vortioxetine tasted, listed as Reference sample (4c), hydrobromide): >30 min | Delayed irritation (oral cavity and tongue; Subject 3, powder equivalent to 20 mg of vortioxetine tasted, listed as Reference sample (7b), hydrobromide): >30 min | Instantaneous irritation (oral cavity and tongue; Subject 4, 0-1 minute, powder equivalent to 20 mg of vortioxetine tasted, listed as Reference sample (2b), hydrobromide): ++ (+ + Irritating, tolerable) | Instantaneous irritation (oral cavity and tongue; Subject 4, 0-1 minute, powder equivalent to 20 mg of vortioxetine tasted, listed as Reference sample (4b), hydrobromide): +++ (+ + + Strong irritation, intolerable) | Delayed irritation (oral cavity and tongue; Subject 4, powder equivalent to 20 mg of vortioxetine tasted, listed as Reference sample (2b), hydrobromide): >30 min | Delayed irritation (oral cavity and tongue; Subject 4, powder equivalent to 20 mg of vortioxetine tasted, listed as Reference sample (4b), hydrobromide): >30 min | Delayed irritation (oral cavity and tongue; Subject 4, powder equivalent to 20 mg of vortioxetine tasted, listed as Reference sample (4c), hydrobromide): >30 min | Delayed irritation (oral cavity and tongue; Subject 4, powder equivalent to 20 mg of vortioxetine tasted, listed as Reference sample (7b), hydrobromide): >30 min | Instantaneous irritation (oral cavity and tongue; Subject 5, 0-1 minute, powder equivalent to 20 mg of vortioxetine tasted, listed as Reference sample (2b), hydrobromide): +++ (+ + + Strong irritation, intolerable) | Instantaneous irritation (oral cavity and tongue; Subject 5, 0-1 minute, powder equivalent to 20 mg of vortioxetine tasted, listed as Reference sample (4b), hydrobromide): +++ (+ + + Strong irritation, intolerable) | Delayed irritation (oral cavity and tongue; Subject 5, powder equivalent to 20 mg of vortioxetine tasted, listed as Reference sample (2b), hydrobromide): >30 min | Delayed irritation (oral cavity and tongue; Subject 5, powder equivalent to 20 mg of vortioxetine tasted, listed as Reference sample (4b), hydrobromide): >30 min | Delayed irritation (oral cavity and tongue; Subject 5, powder equivalent to 20 mg of vortioxetine tasted, listed as Reference sample (4c), hydrobromide): >30 min | Delayed irritation (oral cavity and tongue; Subject 5, powder equivalent to 20 mg of vortioxetine tasted, listed as Reference sample (7b), hydrobromide): >30 min | Instantaneous irritation (oral cavity and tongue; average of 5 subjects, powder equivalent to 20 mg of vortioxetine, listed as Reference sample (2b), hydrobromide): +++ (+ + + Strong irritation, intolerable) | Instantaneous irritation (oral cavity and tongue; average of 5 subjects, powder equivalent to 20 mg of vortioxetine, listed as Reference sample (4b), hydrobromide): +++ (+ + + Strong irritation, intolerable) | Instantaneous irritation (oral cavity and tongue; average of 5 subjects, powder equivalent to 20 mg of vortioxetine, listed as Reference sample (4c), hydrobromide): +++ (+ + + Strong irritation, intolerable) | Instantaneous irritation (oral cavity and tongue; average of 5 subjects, powder equivalent to 20 mg of vortioxetine, listed as Reference sample (7b), hydrobromide): +++ (+ + + Strong irritation, intolerable) | Instantaneous irritation (oral cavity and tongue; average of 5 subjects, powder equivalent to 20 mg of vortioxetine, listed as Reference sample (9b), hydrobromide): +++ (+ + + Strong irritation, intolerable) | Instantaneous irritation (oral cavity and tongue; average of 5 subjects, powder equivalent to 20 mg of vortioxetine, listed as Reference sample (10), hydrobromide): ++ (+ + Irritating, tolerable) | Instantaneous irritation (oral cavity and tongue; average of 5 subjects, powder equivalent to 20 mg of vortioxetine, listed as Reference sample (11b), hydrobromide): +++ (+ + + Strong irritation, intolerable) | Instantaneous irritation (oral cavity and tongue; average of 5 subjects, powder equivalent to 20 mg of vortioxetine, listed as Reference sample (11c), hydrobromide): +++ (+ + + Strong irritation, intolerable) | Instantaneous irritation (oral cavity and tongue; average of 5 subjects, powder equivalent to 20 mg of vortioxetine, listed as Reference sample (14b), hydrobromide): +++ (+ + + Strong irritation, intolerable)

Source: patent US12642797B2, “Coated granule, solid dispersion, and preparation containing vortioxetine hydrobromide for oral taste masking” (Seasons Biotechnology (Taizhou) Co., Ltd., priority 2019, dated 2026)
